The values that follow come from the OPERA property sets (Mansouri et al. 2018).

The structures appear in SMILES notation. Peptide text beside a SMILES is read from it.

As to `CO`, the logP was -0.77.

Compound `O=C(NP(=O)(N1CC1)N1CC1)c1ccc(Br)cc1` had a logP of 1.63.

Consider `COc1ccc(-c2cc3ccccn3c2)cc1`, for which the logP was found to be 4.2.

In turn, `NC(=O)c1ccccc1O` came in with a logP of 1.28.

As for `CCCOC`, the logP was found to be 1.21.

`COc1ccc(-c2nc3cnccc3o2)c(OC)c1`: the lipophilicity (logP) was 2.42.

On to `CCN(CC)C(C)=O`, for which the logP came out at 0.34.

For the compound `OC[C@@H](O)[C@@H](O)CO`, the logP is -2.29.

Compound `COc1ccc(NC(=O)NC(=N)N)cc1` came in with a logP of 0.56.

`COc1ccccc1NCCO` showed a logP of 1.5.

`CNC(=O)Oc1ccccc1Cl` gave a logP of 1.64.

Consider `Cc1c(CC(=O)O)sc2ccc(Cl)cc12`, for which the logP worked out at 3.92.

In the case of `CCCCNC(=O)c1cccnc1`, the logP turned out to be 0.9.

For the compound `CCCCCCCCn1cc(C)c(=O)[nH]c1=O`, the logP is 3.08.

For `O=S(=O)(O)c1ccc2ccccc2c1`, the logP is 0.63.

Regarding `CC(=O)c1cccc(NC(=O)N(C)C)c1`, the log partition coefficient (logP) was found to be 0.95.

The compound `CC(C)(C)C(N)Cc1ccccc1` (stereo unspecified) gave a logP of 2.91.

Compound `CCCCN(C)C` showed a logP of 1.7.

On to `CCCCCCCC(C)=O`, for which the logP stood at 3.14.

Take `CCCCCCc1ccc(O)cc1O`: the logP was found to be 3.45.

In the case of `O=C(O)c1ccc2cccccc1-2`, the logP came to 2.88.

The compound `CNC(=O)Oc1ccccc1C(C)(C)C` had a logP of 2.65.

In the case of `O=Ic1ccccc1`, the logP is -1.61.

As to `O=S1OCC2C(CO1)C1(Cl)C(Cl)=C(Cl)C2(Cl)C1(Cl)Cl` (stereo unspecified), the log partition coefficient (logP) is 3.83.

As to `O=C1CN=C(c2ccccc2)c2cc(F)ccc2N1`, the logP amounted to 2.32.

For `Clc1cc(Cl)c(Cl)c(-c2c(Cl)c(Cl)c(Cl)c(Cl)c2Cl)c1Cl`, the logP came out at 8.16.

Take `CC(=O)NC1CC(=O)N(c2ccccc2)C1=O` (stereo unspecified): the logP was -0.33.

Compound `OC(c1ccc(Cl)cc1)(c1ccc(Cl)cc1)C1CC1` returned a logP of 5.5.

`O=C(O)Cc1cccc(C(=O)O)c1`: the logP came out at 1.14.

Compound `NC(=O)c1cc([N+](=O)[O-])cc([N+](=O)[O-])c1` displayed a logP of 0.83.

`Cc1ccccc1OC(=O)c1ccc(N)cc1O`: the logP stood at 3.14.

For `BrC1CCCCC1`, the logP stood at 3.2.

For `C=CCOc1ccccc1`, the logP is 2.94.

`O=C1CC(=O)c2ccccc21` had a logP of 0.61.

For `Nc1nncs1`, the logP was -0.57.

With `NCCc1ccc(O)c(O)c1`, the logP was -0.98.

On to `CCCCOCN(C(=O)CCl)c1c(CC)cccc1CC`, for which the logP came to 4.5.

Compound `NS(=O)(=O)c1ccc(I)cc1` gave a logP of 1.59.

In the case of `O=C(CCCN1CCC(n2c(=O)[nH]c3ccccc32)CC1)c1ccc(F)cc1`, the logP stood at 3.91.

Take `CN(C)c1nc2c3cccnc3ccc2n1C`: the logP amounted to 2.28.

`CCCC(=NOCC)C1C(=O)CC2(CCC(C)CC2)OC1=O` (stereo unspecified): the logP was found to be 4.07.

`COc1ccc2c(c1)N(C[C@H](C)CN(C)C)c1ccccc1S2` came in with a logP of 4.68.

The compound `Nc1ccc(S(=O)(=O)Nc2cccnc2Cl)cc1` came in with a logP of 1.58.

Compound `Cc1cnc2ccccc2c1` had a logP of 2.53.

Take `CC(=O)NC(CO)C(O)c1ccc([N+](=O)[O-])cc1` (stereo unspecified): the logP was -0.03.

Consider `CC(C)C(C)O` (stereo unspecified), for which the logP was 1.28.

The compound `Cc1cccc2nccnc12` returned a logP of 2.04.

On to `COc1nccnc1NS(=O)(=O)c1ccc(N)cc1`, for which the logP turned out to be 0.7.

Turning to `CN(C)C(N(C)C)=S(I)c1ccc(Br)cc1` (stereo unspecified), the logP came out at 0.06.

Regarding `CC(C)OC(=O)Nc1ccccc1`, the logP is 2.6.

In turn, `CCCCC1CC(C(=O)NC(C(C)O)C2OC(SC)C(O)C(O)C2O)N(C)C1` (stereo unspecified) had a logP of 0.56.

Compound `COc1ccc(C(c2ccc(OC)cc2)C(C)[N+](=O)[O-])cc1` (stereo unspecified) returned a logP of 3.87.

`COc1ccc(OC(C)=O)cc1`: the logP is 1.54.

Turning to `CCN(CC)CC(=O)NC1CCc2ccccc21` (stereo unspecified), the logP came out at 2.74.

In turn, `CC(=O)N(C)c1ccc(O)cc1` gave a logP of 0.61.

`CCOC(=O)C(Cc1ccccc1)C(=O)OCC` returned a logP of 2.76.

With `CC(F)F`, the logP stood at 0.75.

The compound `c1ccc2nccnc2c1` returned a logP of 1.32.

Consider `NC(=O)Cc1ccccn1`, for which the logP is -0.65.

In the case of `CON(C)C(=O)Nc1ccc(Cl)cc1`, the logP was found to be 2.3.

`O=C(O)c1ccccc1Nc1cccc(C(F)(F)F)c1` registered a logP of 5.25.

With `CCCC=O`, the logP is 0.88.

`CC(=O)OC(OC(C)=O)c1ccc([N+](=O)[O-])o1` yielded a logP of 1.06.

The compound `OCC(F)(F)C(F)(F)F` showed a logP of 1.23.

Turning to `OCC1CC1c1ccccc1` (stereo unspecified), the logP stood at 1.95.

The compound `N#Cc1cccc(C(=O)O)c1` showed a logP of 1.48.

In the case of `CN(N=O)C(=O)NC1C(O)OC(CO)C(O)C1O` (stereo unspecified), the logP is -1.45.

In the case of `O=[N+]([O-])c1nccn1CC(O)CF` (stereo unspecified), the logP was -0.52.

The compound `Cc1cc(CC(=O)O)ccc1OCc1ccccc1` returned a logP of 3.37.

`O=C(O)Cc1cccc([N+](=O)[O-])c1` gave a logP of 1.45.

For `Clc1cc(-c2ccccc2)c(Cl)c(Cl)c1Cl`, the logP was found to be 6.41.

Turning to `Clc1c(Cl)c(Cl)c2ccccc2c1Cl`, the logP was found to be 5.75.

Take `O=[N+]([O-])C=Cc1ccco1`: the logP stood at 1.56.

`COC(=O)c1c[nH]c(C)c1` registered a lipophilicity (logP) of 1.96.

In the case of `CC(C)C(C(=O)OC(C#N)c1cccc(Oc2ccccc2)c1)c1ccc(Cl)cc1` (stereo unspecified), the logP was 6.2.

As to `O=C1CCCO1`, the lipophilicity (logP) is -0.64.

Compound `CCN(CC)C(C)CN1c2ccccc2Sc2ccccc21` (stereo unspecified) showed a logP of 4.77.

With `Nc1ccc(Cl)c([N+](=O)[O-])c1`, the logP was determined as 2.06.

`CNP(=O)(OC)Oc1ccccc1Cl` (stereo unspecified) registered a logP of 1.61.

As for `COc1cc2c(c(OC)c1O)-c1ccc(OC)c(=O)cc1[C@@H](NC(C)=O)CC2`, the logP stood at 0.48.

The compound `CCCCCCCN` came in with a logP of 2.57.

Compound `CS(=O)(=O)c1ccc(C(=O)O)cc1` yielded a logP of 0.67.

In the case of `Cc1ccc(S(N)(=O)=O)cc1`, the logP was found to be 0.82.

Compound `Clc1ccc2ncccc2c1` returned a logP of 2.73.

Consider `NS(=O)(=O)c1ccc2c(c1)S(=O)(=O)NCN2`, for which the logP was -0.52.

`C[C@@H](N)[C@@H](O)c1ccccc1` gave a logP of 0.67.

`COc1cc(C(=O)O)ccc1O` came in with a logP of 1.43.

Compound `OCc1cccs1` came in with a logP of 0.87.

`NNC(=O)c1ccc(Cl)cc1` registered a logP of 1.18.

`CC(=O)Nc1cccc(C(C)=O)c1` yielded a log partition coefficient (logP) of 1.06.

Consider `CCC(NC(C)=O)C(=O)OC` (stereo unspecified), for which the logP is -0.17.

In turn, `O=C(O)c1ccc([N+](=O)[O-])cc1` displayed a logP of 1.89.

`O=C1NC(=O)c2ccccc21` gave a logP of 1.15.

The compound `O=C(NC(CO)C(O)c1ccc([N+](=O)[O-])cc1)C(F)(F)F` (stereo unspecified) had a logP of 1.07.

On to `O=S1(=O)Nc2ccccc2N1`, for which the logP came out at 1.12.

Take `NC(=O)CCc1cccnc1`: the logP is -0.26.

On to `Clc1ccc(-c2cc(Cl)c(Cl)cc2Cl)cc1Cl`, for which the logP was 7.12.

The compound `CCC1(CC(C)C(C)C)C(=O)NC(=O)NC1=O` (stereo unspecified) displayed a logP of 2.02.

`CC(=O)OCC(=O)[C@H]1CC[C@H]2[C@@H]3CCC4=CC(=O)CC[C@]4(C)[C@H]3CC[C@]12C` registered a logP of 3.08.

For `CC(=O)NC(C(=O)NC(CCC(N)=O)C(N)=O)C(C)C` (stereo not drawn) (Ac-Val-Gln-NH2; configuration not given here), the logP was -1.82.

`CCCc1ncc([N+](=O)[O-])n1CCNC(=S)OC` registered a logP of 1.94.

`CN(C)C(=O)OCc1ccc(OCc2ccccc2)cc1` gave a logP of 3.27.

The compound `O=c1ccoc2cc(O)ccc12` came in with a logP of 1.44.

With `O=C1c2ccccc2Cc2ccccc21`, the lipophilicity (logP) was determined as 3.66.

In the case of `O=c1[nH]c(=O)n([C@H]2C[C@H](O)[C@@H](CO)O2)cc1F`, the logP was -1.16.

`Cc1[nH]c(=O)n(C(C)(C)C)c(=O)c1Cl`: the logP turned out to be 1.89.

On to `CCOC(=O)C(SP(=S)(OC)OC)c1ccccc1` (stereo unspecified), for which the logP is 3.69.

Compound `Cc1ccc(NS(=O)(=O)c2ccc(N)cc2)cc1` returned a logP of 2.11.

Turning to `CC(=O)Nc1ccc2ncccc2c1`, the logP worked out at 1.55.

As for `c1ccc(-n2cccc2)cc1`, the logP was found to be 3.08.

With `CCOC(=O)C(=Cc1cccc(Cl)c1)C(C)=O`, the logP came to 2.97.

As for `O=[N+]([O-])c1ncn(CC(O)CF)n1` (stereo unspecified), the logP was -0.59.

Compound `Oc1ccc(N=C=S)cc1` displayed a logP of 2.74.

In turn, `N#CCc1ccco1` came in with a logP of 0.85.

`COc1ccc(C(C#N)C(C)C)cc1` (stereo unspecified) returned a logP of 2.68.

`CC(C)Oc1cccc(COC(=O)N(C)C)c1`: the logP is 3.03.

In turn, `CN(C)CCCNC(=O)c1ccccc1` registered a logP of 1.27.

Take `O=C(O)Cc1ccccc1F`: the logP amounted to 1.5.

`CC(=O)Nc1cccc(OCC(=O)O)c1` showed a logP of 0.48.

Consider `CC(=O)OCC1CCC(n2cnc3c(=O)[nH]cnc32)O1` (stereo unspecified), for which the logP was -0.9.

`CNC(=O)Oc1cccc(C#N)c1`: the logP is 0.97.

`CC(C)NC(C)C` registered a logP of 1.4.

With `CSSC`, the logP was 1.77.

`CCC(=O)C1(c2cccc(OC(=O)CC(C)(C)C)c2)CCN(C)CC1`: the logP stood at 3.17.

In turn, `CCC(C(N)=O)(C(N)=O)c1ccccc1` returned a logP of 0.13.

Take `NS(=O)(=O)c1cc2c(cc1Cl)NC(Cc1ccccc1)NS2(=O)=O` (stereo unspecified): the logP amounted to 0.93.

In turn, `Oc1cc(Cl)ccc1Cl` displayed a logP of 3.06.

The compound `Clc1ccc(-c2cccc(Cl)c2Cl)cc1` gave a logP of 5.42.

Regarding `COP(=O)(OC)OC=C(Cl)Cl`, the logP is 1.43.

The compound `OCc1cccc(Cl)c1` came in with a logP of 1.94.

For `COc1cccc(OC(=O)c2ccc(N)cc2O)c1`, the logP is 3.25.

`C#C[C@]1(O)CC[C@H]2[C@@H]3CCC4=CC(=O)CC[C@@H]4[C@H]3CC[C@@]21C` came in with a logP of 2.97.

Regarding `CCCn1cnc2c(N)ncnc21`, the log partition coefficient (logP) is 0.74.

`COc1c(O)c(OC)c(Cl)c(Cl)c1Cl` returned a logP of 3.74.

The compound `CNCC(F)(F)F` registered a logP of 0.55.

`CCc1cnc(NS(=O)(=O)c2ccc(N)cc2)nc1` came in with a logP of 0.9.

As a reminder, the logP is the decadic logarithm of the partition coefficient of the neutral form, usually between octanol and water. The low end stands for lower lipophilicity, the high end for higher lipophilicity.
